# Reference: patent US8357694B2, “Substituted 5,6-dihydro-6-phenylbenzo[F]isoquinolin-2-amine compounds” (ArQule, Inc., priority 2008, dated 2013)
# Columns and labels:
# Type in all cases: cell-based
# [1] = tested on: PC-3; test: MTS cell kill, PC-3
# Description: (§1) Cells were maintained at 37° C., 5% CO2 in DMEM media supplemented with 1% fetal bovine serum, penicillin/streptomycin and fungizone (Invitrogen). Cells were seeded into 96-well tissue culture plates at 3000 per well and cultured at 37° C. for 18 hours. Test compounds were dissolved and diluted to 300× in DMSO then diluted 1:40 in DMEM.
# [2] = tested on: MDA-MB-231; test: MTS cell kill, MDA-MB-231
# Description: as §1
# [3] = tested on: NCI-H1299; test: MTS cell kill, NCI-H1299
# Description: as §1
# [4] = tested on: DLD-1; test: MTS cell kill, DLD-1
# Description: as §1
# [5] = tested on: KATO III; test: MTS assay, KATO III
# Description: as §1
# [6] = tested on: PACA-2; test: MTS cell kill, PACA-2
# Description: as §1
# Further: test concentration or dose not given here.
structure (smiles),measurement,setting,value
"COc1ccc(C(=O)Nc2ccc(C3Cc4cnc(NCCCCN(C)C)nc4-c4ccccc43)cc2)cc1F (stereo not drawn) [Example 474, N-[4-(2-{[4-(dimethylamino)butyl]amino}-5,6-dihydrobenzo[h]quinazolin-6-yl)phenyl]-3-fluoro-4-methoxybenzamide]",MTS cell kill data (% inhibition) PC-3,[1],A (A = 80-100% inhibition)
same,MTS cell kill data (% inhibition) MDA-MB-231,[2],B (B = 50-79% inhibition)
same,MTS cell kill data (% inhibition) NCI-H1299,[3],A (A = 80-100% inhibition)
same,MTS cell kill data (% inhibition) DLD-1,[4],A (A = 80-100% inhibition)
same,MTS cell kill data (% inhibition) KATO III,[5],A (A = 80-100% inhibition)
same,MTS cell kill data (% inhibition) PACA-2,[6],A (A = 80-100% inhibition)
"Cc1ccc(S(=O)(=O)Nc2ccc(C3Cc4cnc(NCCCCN(C)C)nc4-c4ccccc43)cc2)cc1 (stereo not drawn) [Example 420, N-[4-(2-{[4-(dimethylamino)butyl]amino}-5,6-dihydrobenzo[h]quinazolin-6-yl)phenyl]-4-methylbenzenesulfonamide]",MTS cell kill data (% inhibition) PC-3,[1],A (A = 80-100% inhibition)
same,MTS cell kill data (% inhibition) MDA-MB-231,[2],A (A = 80-100% inhibition)
same,MTS cell kill data (% inhibition) NCI-H1299,[3],A (A = 80-100% inhibition)
same,MTS cell kill data (% inhibition) DLD-1,[4],A (A = 80-100% inhibition)
same,MTS cell kill data (% inhibition) KATO III,[5],A (A = 80-100% inhibition)
same,MTS cell kill data (% inhibition) PACA-2,[6],A (A = 80-100% inhibition)
"CCCc1ccc(C(=O)Nc2ccc(C3Cc4cnc(NCCCCN(C)C)nc4-c4ccccc43)cc2)cc1 (stereo not drawn) [Example 470, N-[4-(2-{[4-(dimethylamino)butyl]amino}-5,6-dihydrobenzo[h]quinazolin-6-yl)phenyl]-4-propylbenzamide]",MTS cell kill data (% inhibition) PC-3,[1],A (A = 80-100% inhibition)
same,MTS cell kill data (% inhibition) MDA-MB-231,[2],A (A = 80-100% inhibition)
same,MTS cell kill data (% inhibition) NCI-H1299,[3],A (A = 80-100% inhibition)
same,MTS cell kill data (% inhibition) DLD-1,[4],A (A = 80-100% inhibition)
same,MTS cell kill data (% inhibition) KATO III,[5],A (A = 80-100% inhibition)
same,MTS cell kill data (% inhibition) PACA-2,[6],A (A = 80-100% inhibition)
"Cc1cccc(C(=O)Nc2ccc(C3Cc4cnc(NCCCCN(C)C)nc4-c4ccccc43)cc2)c1 (stereo not drawn) [Example 469, N-[4-(2-{[4-(dimethylamino)butyl]amino}-5,6-dihydrobenzo[h]quinazolin-6-yl)phenyl]-3-methylbenzamide]",MTS cell kill data (% inhibition) PC-3,[1],A (A = 80-100% inhibition)
same,MTS cell kill data (% inhibition) MDA-MB-231,[2],A (A = 80-100% inhibition)
same,MTS cell kill data (% inhibition) NCI-H1299,[3],A (A = 80-100% inhibition)
same,MTS cell kill data (% inhibition) DLD-1,[4],A (A = 80-100% inhibition)
same,MTS cell kill data (% inhibition) KATO III,[5],A (A = 80-100% inhibition)
same,MTS cell kill data (% inhibition) PACA-2,[6],A (A = 80-100% inhibition)
COc1ccc(OC)c(CC(=O)Nc2ccc(C3Cc4cnc(NCCCCN(C)C)nc4-c4ccccc43)cc2)c1 (stereo not drawn) [Example 473],MTS cell kill data (% inhibition) PC-3,[1],A (A = 80-100% inhibition)
same,MTS cell kill data (% inhibition) MDA-MB-231,[2],A (A = 80-100% inhibition)
same,MTS cell kill data (% inhibition) NCI-H1299,[3],A (A = 80-100% inhibition)
same,MTS cell kill data (% inhibition) DLD-1,[4],A (A = 80-100% inhibition)
same,MTS cell kill data (% inhibition) KATO III,[5],A (A = 80-100% inhibition)
same,MTS cell kill data (% inhibition) PACA-2,[6],A (A = 80-100% inhibition)
